Experimental data taken from patent publication EP0209274A2, “Furanone derivatives” (ELI LILLY AND COMPANY, priority 1985, dated 1987).

Columns and labels:
[1] = molecular target: Pancreatic phospholipase A2 (Homo sapiens, UniProt P04054); assay: Phospholipase A2 (PLA2) Assay; type: biochemical; settings: 30 µg/ml test compound; inhibition of 14C-free fatty acid formation
Method: The assay buffer contained 10 mM Tris-HCl buffer, pH 8.0, 100 mM NaCl, 1 mM CaCl2 and 1 mg/ml of bovine serum albumin. A toluene-ethanol (1:1 v/v) solution of phosphatidiylcholine, L-a-dipalmitoyl-(2-palmitoyl-1-^14C) obtained from New England Nuclear was evaporated to dryness in a flask under nitrogen and the assay buffer was added to give a substrate concentration of 9.0 x 10^-5M (specific activity = 27.7 mCi/mmol). The mixture was sonicated for 5 minutes in a Bransonic 220 Sonication Bath. Pancreatic phospholipase A2 (specific activity = 600 units/mg) was diluted with the assay buffer to give an enzyme concentration of 0.1 mg/ml. […] To initiate the enzyme reaction, 0.1 ml of the mixture containing the substrate was added to the enzyme solution and the reaction mixture was further incubated for 30 minutes at 37°C. The reaction was then terminated by the addition of 20 µl of 1M citric acid.
Fifty µl of the mixture was added to 10 ml of scintillation fluid [5.88 g of 2,5-diphenyl-oxazole and 118 mg of 1,4-bis(5-phenyloxazol-2-yl)benzene] dissolved in 650 ml of toluene and 350 ml of Triton X-100) and the radioactivity was determined in an Isocap/300 liquid scintillation counter (Searle Analytic Inc., Southfield, Michigan). Another 50 µl of the mixture was applied directly onto the spotting area of a silica gel plate (LK6D, Whatman, Clifton, N.J.) and subjected to thin layer chromatography in a solvent system of ethyl acetate:acetic acid:2,2,4-trimethylpentane:H20 (90:20:50:100, v/v/v). The silica gel on the plate was scraped in 1 cm sections, suspended in 5 ml of the Triton X-100 based scintillation fluid and the radioactivity was determined. Phosphatidylcholine remained at the origin while fatty acids migrated to a few centimeters (2-3 cm) below the solvent front. The percent of ^14C-free fatty acid formed with the test compound added was calculated as compared to the amount formed in control experiments where no test compound was added. […]

[2] = molecular target: T1, 5-Lipoxygenase (Cavia porcellus, UniProt A0A286X958); assay: 5-Lipoxygenase (5-LPO) Assay; type: biochemical, guinea pigs; settings: inhibition of 5-HETE formation; supernatant of guinea pig PMNL sonicate; read-out: 5-LPO IC50 (µg/ml) (converted)
T1 construct: The PMNL suspension was disrupted by five ½-second pulse sonication; from tissue; host or cells: guinea pig peritoneal polymorphonuclear leukocytes (30,000 x g supernatant of the sonicate)
T1 sequence (A0A286X958 1-674): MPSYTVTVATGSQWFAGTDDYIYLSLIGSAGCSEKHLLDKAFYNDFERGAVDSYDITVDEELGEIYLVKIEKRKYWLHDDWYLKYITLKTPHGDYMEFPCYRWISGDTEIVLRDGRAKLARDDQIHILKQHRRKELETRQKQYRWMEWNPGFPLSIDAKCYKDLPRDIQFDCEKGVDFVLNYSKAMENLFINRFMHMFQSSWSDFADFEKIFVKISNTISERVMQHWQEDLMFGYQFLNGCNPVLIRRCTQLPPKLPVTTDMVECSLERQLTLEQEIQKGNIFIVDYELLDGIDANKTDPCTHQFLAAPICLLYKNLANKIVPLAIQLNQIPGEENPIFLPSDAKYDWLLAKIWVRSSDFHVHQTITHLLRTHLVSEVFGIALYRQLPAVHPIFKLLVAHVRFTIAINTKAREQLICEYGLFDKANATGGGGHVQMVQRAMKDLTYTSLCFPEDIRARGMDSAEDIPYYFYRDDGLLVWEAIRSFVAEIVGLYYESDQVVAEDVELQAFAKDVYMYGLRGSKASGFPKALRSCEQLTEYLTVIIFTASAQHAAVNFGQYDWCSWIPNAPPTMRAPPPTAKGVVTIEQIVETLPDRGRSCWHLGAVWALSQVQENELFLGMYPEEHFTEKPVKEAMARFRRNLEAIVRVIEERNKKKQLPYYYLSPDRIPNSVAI
Method: Ten milliliters of a 2% casein solution were injected intraperitoneally to guinea pigs weighing 250-300 gm. After 16-18 hours, the guinea pigs were killed by suffocation in a carbon dioxide chamber. The peritoneal cavity was infused with 70 ml of saline and 40-50 ml of the fluid were recovered from the cavity. After centrifugation, cell pellets were washed twice in Hank's balanced salt solution (HBSS) without calcium ion.
The cells were then suspended in 5 ml of sodium phosphate buffer, pH 7.1 containing 1 mM EDTA, and 0.1% gelatin. About 20-30 x 10^7 cells were obtained from one guinea pig.
The PMNL suspension was disrupted by five ½-second pulse sonication at the setting of 3 in a Branson Sonifier, Model 350, equipped with a microtip. The sonicates were combined and centrifuged at 30,000 x g for 10 minutes. The supernatant was kept frozen at -70°C until use.
. Enzyme activity was determined by assaying for 5-HETE formatiun by first incubating 0.2 ml of the supernatant obtained from the PMNL sonicate with the test compound, 1 mM CaCl2, 2 mM ATP, and 1 mM GSH for 5 minutes at 37°C. The mixture is treated with 5 pM ^14C-arachidonic acid and incubated at 37°C an additional 10 minutes. The enzyme reaction was then stopped by the addition of 10 µl of 1M citric acid and 10 µl of an alcohol solution containing 20 mg/ml each of indomethacin and butylated hydroxyanisole (BHA). The reaction mixture was spotted (50 µl) on a silica gel plate (Baker TLC plate S1250-PA-19C) and subjected to TLC in a solvent system of ethyl acetate/2,2,4-tri- methylpentane/glacial acetic acid/H20 (90:50:20:100).
The radioactivity of the arachidonic acid and its metabolites (5-HETE and LTB4) was visualized from a developed x-ray film which had been exposed to the TLC plate 1-2 days. The amount of 5-HETE formed was quanti- tated by scraping the silica gel area corresponding to the spot on the x-ray film, and the radioactivity determined in a Isocap/300 liquid scintillation counter (Searle Analytic, Inc.).
The percent inhibition of the formation of 5-HETE was determined for each concentration of test compound tested as compared to a control experiment wherein no test compound was added. The concentration and percent inhibition values were plotted on semi log paper and the concentration in which formation of 5-HETE is inhibited by 50% (ICso) was determined by interpolation.

Chain of Pancreatic phospholipase A2 (P04054 23-148): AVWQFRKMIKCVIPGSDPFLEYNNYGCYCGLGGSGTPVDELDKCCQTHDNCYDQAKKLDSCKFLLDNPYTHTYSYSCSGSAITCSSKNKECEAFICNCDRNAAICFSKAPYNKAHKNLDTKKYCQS

| inhibition at 30 µg/mL [1] | IC50 [2] | Compound |
| --- | --- | --- |
| 77% | 1.25 to 3.12 µM | CCCCC/C=C\C/C=C\CCCCCCC1=CC(=O)OC1O (centres unmarked) [Example 1, (Z,Z)-4-(7,10-hexadecadienyl)-5-hydroxy-2-(5H)-furanone] |
| 82% | 0.471 to 1.88 µM | CC/C=C\C/C=C\C/C=C\CCCCCCC1=CC(=O)OC1O (centres unmarked) [Example 2, (Z,Z,Z)-4-(7,10,13-hexadecatrienyl)-5-hydroxy-2(5H)-furanone] |
| 41% | 0.435 to 1.16 µM | CCCCC/C=C\C/C=C\C/C=C\C/C=C\CCC1=CC(=O)OC1O (centres unmarked) [Example 3, (Z,Z,Z,Z)-5-hydroxy-4-(3,6,9,12-octa-decatetraenyl)-2(5H)-furanone] |
| 0% | ~3.1 µM | CCCCCCCC/C=C/CCCCCCC1=CC(=O)OC1O (centres unmarked) [Example 4, (E)-4-(7-hexadecenyl)-5-hydroxy-2(5H)-furanone] |
| 77% | 1.57 to 4.71 µM | CCCCC/C=C\C/C=C\C/C=C\CCCC1=CC(=O)OC1O (centres unmarked) [Example 5, (Z,Z,Z)-4-(4,7,10-hexadecatrienyl)-5-hydroxy-2(5H)-furanone] |
| 0% | 2.17 to 16.3 µM | CC/C=C\C/C=C\C/C=C\C/C=C\C/C=C\C/C=C\CC1=CC(=O)OC1O (centres unmarked) [Example 9, (Z,Z,Z,Z,Z,Z)-4-(2,5,8,11,14,17-eicosa-hexaenyl)-5-hydroxy-2(5H)-furanone] |
| 51% | 1.24 µM | CCCCCCCC/C=C\CCCCCCC1=CC(=O)OC1O (centres unmarked) [Example 11, (Z)-4-(7-hexadecenyl)-5-hydroxy-2(5H)-furanone] |
| 72% | 16.8 to 40.2 µM | O=C1C=C(CCCCOc2ccc3ccccc3c2)C(O)O1 (centres unmarked) [Example 12, 5-Hydroxy-4-[4-(2-naphthalenyloxy)butyl]-2(5H)-furanone] |
| 50% | 25.1 µM | CC(C)=CCCC(C)=CCCC(C)=CCCC1=CC(=O)OC1O (centres unmarked) [Example 13, 5-Hydroxy-4-(4,8,12-trimethyl-3,7,11-tri-decatrienyl)-2(5H)-furanone] |
| 72% | 24 µM | CC(C)=CCC/C(C)=C/CCC1=CC(=O)OC1O (centres unmarked) [Example 14, (E,E)-4-(4,8-dimethyl-3,7-nonadienyl)-5-hydroxy-2(5H)-furanone] |
| 88% | 0.241 µM | CC(C)=CCCC(C)=CCCC(C=O)=CCCC1=CC(=O)OC1O (centres unmarked) [Example 15, 2-[3-(2,5-dihydro-2-hydroxy-5-oxo-3-furanyl)-propylidene]-6,10-dimethyl-5,9-undecadienal] |
| 44% | 28.4 µM | O=C1C=C(CCCCCOc2ccccc2Cc2ccccc2)C(O)O1 (centres unmarked) [Example 18, 5-Hydroxy-4-[5-(2-benzylphenoxy)pentyl]-2(5H)-furanone] |
| 76% | 4.48 µM | CC(C)=CCCC(C)=CCCC(=CCCC1=CC(=O)OC1O)CO (centres unmarked) [Example 19, 5-Hydroxy-4-[4-(hydroxymethyl)-8,12-dimethyl-3,7,11-tridecatrienyl]-2(5H)-furanone] |
